From patent US5844001A, “Combination platinum chemotherapeutic/antiestrogen therapy for human cancers” (Research Development Foundation, priority 1994, dated 1998)
Read-outs that look alike come from different tables or passages of the source.

Key:
T-289 melanoma cells = assay: Development of DDP resistance with or without TAM, T-289 (colony formation); assay type: cell-based, human
UM-SCC-5 cells = assay: Colony forming assay, parental UM-SCC-5; assay type: cell-based, human
Protocol: (§1) The UM-SCC-10B and UM-SCC-5 cell lines were derived from human squamous cell carcinomas of the in head and neck region. […] The sensitivity of the UM-SCC-10B and UM-SCC-5 cell lines and their cDDP-resistant variants to cDDP, TAM and the combination of both agents was tested by colony forming assay. Single-cell suspension were plated into 60 mm tissue culture dishes (Corning) at 300 cells per dish. […] Colonies were fixed with methanol, stained with Giemsa stain for 60 minutes, and counted manually.
(§2) Median effect analysis was used to assess the interaction between cDDP and TAM using a schedule of one hour exposure to cDDP and continuous exposure to TAM. After seeding the cells into 60 mm tissue culture dishes at 300 cells per dish in fresh medium and allowing 5 hours for them to attach, TAM was added. For the combined treatment, cDDP was added to the dishes 24 hours after seeding the cells. […] After incubation the dishes were washed twice with phosphate-buffered saline and fresh medium containing the appropriate concentration of TAM was added. In synergy experiments, dose-response curves for the single agents were initially generated. The extend of the combined treatment was then analyzed by the isobole method for a combination of cDDP and TAM from the equation

melanoma [1] = assay: Clinical trial: tumor response to DDP alone, then TAM/DDP after DDP resistance; assay type: in vivo, human (patients)
From the text: A complete response was defined as the complete disappearance of all evidence of disease for at least 4 weeks. A partial response was a decrease in the mean diameter of the target lesion by 50% or more lasting at least 4 weeks. A mixed response was a decrease in the diameter of some target lesions of 50% or more while others remained stable or increased in size. A stable disease was defined as a <50% decrease or <25% increase in the size of target lesions for at least 2 months without the growth or appearance of other lesions. A progressive disease was defined as an increase in the size of target lesions by 25% or more.
Patients were retreated every 3 weeks. […] Subsequent patients received an ondansetron-based regimen.

[2] = test system: UM-SCC-5 head and neck carcinoma cells; assay: Development of cisplatin resistance with or without tamoxifen, UM-SCC-5 (clonogenic assay); assay type: cell-based, human
Protocol: (§3) The UM-SCC-10B and UM-SCC-5 cell lines were derived from human squamous cell carcinomas of the in head and neck region. Cells were cultured at 37° C. in humidified 5% CO2 in 150 cm^2 flasks (Corning, Corning, N.Y.) with RPMI 1640 medium (Mediatech Inc., Herndon, Va.) containing 10% fetal bovine serum (Gemini Bioproducts Inc., Calabasas, Calif.), 2 mM L-glutamine, 100 units/ml of penicillin and 100 μg/ml of streptomycin sulfate. The sensitivity of the UM-SCC-10B and UM-SCC-5 cell lines and their cDDP-resistant variants to cDDP, TAM and the combination of both agents was tested by colony forming assay. Single-cell suspension were plated into 60 mm tissue culture dishes (Corning) at 300 cells per dish. Following drug exposure, the cultures were washed twice with PBS to remove cDDP, 5 ml of fresh medium was added, and they were incubated for 13-15 days to allow formation of colonies. Colonies were fixed with methanol, stained with Giemsa stain for 60 minutes, and counted manually.
(§4) Cells were cultured in drug-free medium for two weeks prior to being tested for drug sensitivity.

UM-SCC-10B cells = assay: Colony forming assay, parental UM-SCC-10B; assay type: cell-based, human
Protocol: as §1, §2

[3] = test system: UM-SCC-10B head and neck carcinoma cells; assay: Development of cisplatin resistance with or without tamoxifen, UM-SCC-10B (clonogenic assay); assay type: cell-based, human; details: for effect on development of cisplatin resistance: tamoxifen present during selection, in words
Protocol: as §3, §4

[4] = human, in vivo
From the text: (§5) Entry requirements included histologically documented melanoma, measurable disease, signed informed consent, and no anti-tumor therapy during the previous 4 weeks. Patients were required to have normal hematologic and renal function, an ECOG performance status of 0-2 and an estimated survival of at least 3 months. Patients with a previous history of deep venous thrombosis or pulmonary embolism were excluded.
(§6) Pre-treatment hydration consisted of 1 liter of 5% dextrose/0.45%saline containing 20 mEq of potassium chloride and 2 g magnesium sulfate administered over 4 hours. […] Patients were retreated every 3 weeks. On cycles where TAM was administered, 40 mg p.o. four doses per day were given on day 1 followed by 20 mg p.o. daily thereafter. The initial 7 patients were treated with a combination of lorazepam, metaclopramide, benadryl and dexamethasone to control nausea and vomiting. Subsequent patients received an ondansetron-based regimen.

[5] = test system: cell lines of human origin; assay: Synergy of TAM and DDP: timing and mechanism observations; assay type: cell-based
melanoma [6] = details: 203 treated melanoma patients; cited from earlier work
[7] = Toxicities with DDP or DDP/TAM treatment (clinical trial); details: in words
From the text: as §5, §6

[8] = Steady-state plasma concentration of TAM; assay type: in vivo, human (patients); details: predicted from in vitro data
Protocol: The design of the study of Example 1 itself was biased against response and the response rate in other settings would be higher. […] Chronic administration of TAM at 10 mg p.o. twice a day produces steady-state plasma concentrations in the range of 0.29 μM. However, the in vitro data predicts that plasma concentrations of more than 0.5 μM will be necessary in DDP-resistant patients.

[9] = read-out: IC50, one hour exposure to cisplatin
[10] = number of patients, DDP n=24, TAM/DDP n=20
[11] = Homo sapiens, read-out: IC50, continuous tamoxifen exposure

N.N.[Cl][Pt][Cl] [cisplatin, cis-diamminedichloroplatinum (II)]
time at which DDP resistance became apparent (T-289 melanoma cells; T-289 selection): 200 days | IC50 (UM-SCC-5 cells; [9]): 7.2 ± 1.5 µM | duration of complete response (melanoma [1]; DDP alone): more than 15 months | duration of partial response (stable off treatment) (melanoma [1]; DDP alone, one patient): ≥ 6 months | time to progression of patient with partial response (melanoma [1]; DDP alone, the other patient): 4 months | Mixed Response (melanoma [1]; number of patients): 0 patients | Progressive Disease (melanoma [1]; number of patients): 19 patients | Stable Disease (melanoma [1]; number of patients): 2 patients | Complete Response (melanoma [1]; [10]): 1 patients | Partial Response (melanoma [1]; [10]): 2 patients | Complete Response (melanoma [1]; number of patients, DDP n=24, TAM/DDP n=20, listed as DDP): One | Progressive Disease (melanoma [1]; number of patients, listed as DDP): 17 patients | Complete Response (%) (melanoma [1]; percent of patients): 4% | Partial Response (%) (melanoma [1]; percent of patients): 8% | IC50 ([2]; UM-SCC-5 selected in cisplatin, one hour cisplatin exposure, read-out: IC50 after the fifteenth selection): 20.1 ± 1.2 µM | IC50 (UM-SCC-10B cells; [9]): 6.5 ± 0.6 µM | IC50 ([3]; UM-SCC-10B selected in cisplatin, one hour cisplatin exposure, read-out: IC50 after the fifteenth selection): 40.1 ± 1.2 µM

Cc1nccn1CC1CCc2c(c3ccccc3n2C)C1=O (centres unmarked) [ondonsetron, ondansetron]
nausea and vomiting [4]: markedly reduced nausea and vomiting

CC/C(=C(\c1ccccc1)c1ccc(OCCN(C)C)cc1)c1ccccc1 [tamoxifen]
effect on development of DDP resistance (T-289 melanoma cells; T-289, TAM given concurrently, in words): delay the development of DDP resistance | IC50 (UM-SCC-5 cells; [11]): 3.22 ± 0.54 µM | effect on slope for emergence of cisplatin resistance ([2]; UM-SCC-5, tamoxifen present during selection, in words): no effect | IC50 (UM-SCC-10B cells; [11]): 3.56 ± 0.41 µM | synergy with DDP when TAM is added after DDP ([5]; TAM added up to 48 hours after end of 1 hour DDP exposure): can produce synergy with DDP | effect of tamoxifen on known mechanisms of cisplatin resistance ([5]; drug uptake, glutathione or metallothionein levels, DNA intrastrand adduct formation or repair): not due to an effect of tamoxifen on the known mechanisms of cisplatin resistance | response rate, single agent TAM therapy (melanoma [6]): 6% | nephrotoxicity [7]: uncommon and unaffected by the administration of TAM | toxicity on addition of TAM to single agent DDP [7]: No increased toxicity | nausea and vomiting ([7]; during hospitalization for ondansetron): did not increase nausea or vomiting | reduction of slope of regression line by tamoxifen ([3]; UM-SCC-10B): more than 40% | effect on development of cisplatin resistance ([3]; UM-SCC-10B): delayed the emergence of cisplatin resistance significantly | effect on development of cisplatin resistance ([3]; UM-SCC-10B, listed as TAM): delay the development of DDP resistance | plasma concentration predicted necessary in DDP-resistant patients [8]: more than 0.5 μM
